Where a SMILES comes first, the peptide text is derived from it. Where no end group is shown, it is not given here. [ ]: non-standard residue; d: D form. Lys(Me2) = CN(C)CCCC[C@H](N)C(=O)O; d = 2'-deoxy (DNA); r = 2'-OH (RNA)
Legend:
[1] = target: 53BP1 tandem tudor domain (Homo sapiens, UniProt Q12888); assay: Isothermal titration calorimetry; format: binding; conditions: data not shown; read-out: dissociation constant
[2] = target: T1, GST-53BP1 fusion protein containing 53BP1 residues 1480-1626 (Homo sapiens, UniProt Q12888); assay: Competition of binding of GST-53BP1 to histone H3 by histone H3 peptides (pull-down, immunoblot); conditions: 5 or 25 μg peptide; histones prepared from 293T cells; bound histone H3 detected by immunoblotting
T1 construct: a GST-53BP1 fusion protein containing 53BP1 residues 1480-1626 to histones prepared from 293T cells
T1 sequence (Q12888 1480-1626): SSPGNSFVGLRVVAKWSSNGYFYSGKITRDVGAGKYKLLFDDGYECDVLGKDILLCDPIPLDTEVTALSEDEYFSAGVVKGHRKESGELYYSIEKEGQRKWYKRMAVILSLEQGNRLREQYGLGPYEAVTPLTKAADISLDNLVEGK
From the text: FIG. 3 Binding of the tandem tudor domain of 53BP1 to histone H3 methylated on Lys79. a, GST-53BP1 fusion proteins containing residues 1157-1634 or 1480-1626 of human 53BP1 or plain GST protein were examined for binding to calf thymus histones (ct) or recombinant histones H3 and H4 (r). The proteins were resolved by SDS-PAGE and stained with Coomassie Brilliant Blue. The labels for H3, H2A, H2B and H4 refer to the input histones (Inp. Hist.). b, Identification of 53BP1-bound histones as full-length and N-terminally-cleaved histone H3. Input and GST-53BP1-bound histones were stained with Coomassie Brilliant Blue (C.B.) or immunoblotted (IB) with an antibody that recognizes the C-terminus (C-ter) of histone H3. c, Enrichment for methylation of Lys79 in histone H3 bound to GST-53BP1 as compared to input histone H3. Bound full-length histone H3 (aa 1-135), bound cleaved histone H3 (aa 28-135) and full-length histone H3 from the input fraction were analyzed by tandem mass spectrometry (MS/MS). For each sample, the identified peptides that include Lys79 are shown. K, K# and K## represent non-, mono- and di-methylated lysine, respectively. TIC, total ion current (an indicator of peptide abundance); dM, absolute difference of the experimental and theoretical masses; xCorr, cross correlation value of the experimental MS/MS spectrum versus the theoretical; Ions, number of matched ions in the experimental MS/MS spectrum versus the total number of theoretically possible ions. d, Competition of binding of 53BP1 to histone H3 by methylated histone H3 peptides. Binding of a GST-53BP1 fusion protein containing 53BP1 residues 1480-1626 to histones prepared from 293T cells was performed in the presence of no competitor peptide (−) or 5 or 25 μg histone H3 peptides. Bound histone H3 was detected by immunoblotting. Peptides spanning residues 74-83 of histone H3 had either non- (nm), mono- (mm) or di-methylated (dm) Lys79 (K79); peptides spanning residues 23-34 and 23-32 of histone H3 had dimethylated Lys27 (K27) and Arg26 (R26), respectively. e, Binding of a GST fusion protein containing S. cerevisiae Rad9 residues 750-917 to histone H3. Binding was examined as in a. f, Amino acid substitutions that disrupt recruitment of 53BP1 to sites of DNA DSBs also disrupt binding to histone H3. Binding was examined as in a. g, Crosslinking of ectopically-expressed His-tagged GFP-53BP1 to endogenous histone H3 in irradiated U2OS cells. Non-transfected U2OS cells (−) or cells transfected with His-tagged GFP-53BP1 fusion proteins having wild-type (wt) or mutant (Asp1521Arg, D1521R) 53BP1 were crosslinked with formaldehyde (fr) or were mock-crosslinked (m). Triton-X100 insoluble material (TrIM) from these cells was incubated with nickel-coated beads. Histone H3 in the TrIM and nickel bead-bound (NiBB) fractions was detected by immunoblotting after the crosslinks were reversed.
Glutathione S-transferase (GST) proteins (5 μg) fused to residues 1157-1634 or 1480-1626 of human 53BP1 or 750-917 of S. cerevisiae Rad9 were bound to glutathione beads (Pharmacia). The beads were then incubated for 1 h at 4° C. with histones in buffer containing 25 mM BTP [pH 6.8], 1 M KCl, and 0.5% Triton X-100. After 6 washes the bound material was resolved on SDS-polyacrylamide gels and either stained with Coomassie Brilliant Blue or immunoblotted with an antibody that recognizes the C-terminus of histone H3 (AbCam). […]

human Dot1L = target: T2, human Dot1L (Homo sapiens, UniProt Q8TEK3); assay: Suppression of histone H3 methylation on Lys79 by siRNA (immunoblot); format: cell-based; conditions: U2OS cells, dot1L siRNA transfection (up to 3 rounds)
T2 construct: U2OS cells were transfected with control siRNA (luciferase; Dharmacon) or siRNA directed against human dot1L; endogenous in cells; host or cells: U2OS osteosarcoma cells
T2 sequence (Q8TEK3 whole entry): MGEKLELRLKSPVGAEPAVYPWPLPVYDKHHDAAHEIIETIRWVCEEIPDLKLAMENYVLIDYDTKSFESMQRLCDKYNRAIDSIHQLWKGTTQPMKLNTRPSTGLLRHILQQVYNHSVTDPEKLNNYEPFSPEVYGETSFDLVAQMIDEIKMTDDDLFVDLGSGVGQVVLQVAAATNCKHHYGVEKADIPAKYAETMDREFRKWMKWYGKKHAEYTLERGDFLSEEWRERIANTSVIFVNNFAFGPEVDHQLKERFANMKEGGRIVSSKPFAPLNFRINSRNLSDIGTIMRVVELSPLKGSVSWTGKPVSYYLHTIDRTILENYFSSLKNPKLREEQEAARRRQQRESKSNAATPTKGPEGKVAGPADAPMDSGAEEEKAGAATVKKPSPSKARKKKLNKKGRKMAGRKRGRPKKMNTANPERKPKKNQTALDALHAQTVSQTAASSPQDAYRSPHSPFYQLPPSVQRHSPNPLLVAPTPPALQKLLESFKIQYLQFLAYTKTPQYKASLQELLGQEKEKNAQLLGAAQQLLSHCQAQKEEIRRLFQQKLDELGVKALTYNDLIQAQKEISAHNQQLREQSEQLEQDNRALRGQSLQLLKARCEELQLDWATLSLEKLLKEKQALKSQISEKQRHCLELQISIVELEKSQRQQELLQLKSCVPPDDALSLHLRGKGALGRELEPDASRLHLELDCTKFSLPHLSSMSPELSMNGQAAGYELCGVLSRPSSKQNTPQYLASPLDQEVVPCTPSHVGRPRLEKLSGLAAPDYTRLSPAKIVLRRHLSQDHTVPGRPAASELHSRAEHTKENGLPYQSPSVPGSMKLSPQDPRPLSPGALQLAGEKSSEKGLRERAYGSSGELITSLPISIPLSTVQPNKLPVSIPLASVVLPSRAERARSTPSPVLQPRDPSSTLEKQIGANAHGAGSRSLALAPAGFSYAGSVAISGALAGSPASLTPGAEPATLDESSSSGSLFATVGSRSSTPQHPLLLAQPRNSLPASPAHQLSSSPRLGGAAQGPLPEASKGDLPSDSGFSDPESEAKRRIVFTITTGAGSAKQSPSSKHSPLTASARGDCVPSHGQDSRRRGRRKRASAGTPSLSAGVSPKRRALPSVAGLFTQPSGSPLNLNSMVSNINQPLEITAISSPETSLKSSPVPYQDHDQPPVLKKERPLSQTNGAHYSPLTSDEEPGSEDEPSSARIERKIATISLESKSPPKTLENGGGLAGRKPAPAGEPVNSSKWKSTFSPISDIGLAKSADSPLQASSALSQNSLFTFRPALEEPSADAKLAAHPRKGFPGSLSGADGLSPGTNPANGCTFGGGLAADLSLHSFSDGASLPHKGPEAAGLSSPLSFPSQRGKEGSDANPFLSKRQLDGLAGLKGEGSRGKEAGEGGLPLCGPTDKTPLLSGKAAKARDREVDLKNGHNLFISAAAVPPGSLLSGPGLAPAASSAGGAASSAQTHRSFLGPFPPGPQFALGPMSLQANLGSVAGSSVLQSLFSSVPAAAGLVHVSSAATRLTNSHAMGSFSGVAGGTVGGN

U2OS cells = assay: 53BP1 IR-induced foci in irradiated U2OS cells after siRNA (immunofluorescence); format: cell-based, human; conditions: 9 Gy IR, 15 min later
Method: FIG. 4 Histone H3 methylated on Lys79 and changes in higher order chromatin structure recruit 53BP1 to sites of DNA DSBs and chromatin. a, Suppression of histone H3 methylation on Lys79 inhibits recruitment of 53BP1 to sites of DNA DSBs. The percentage of irradiated (9 Gy) U2OS cells without (w/o) 53BP1 foci was determined from 4 independent experiments of control (ctl) siRNA-treated cells or cells transfected once (1) or 3 consecutive times (3) with dot1L-specific siRNA. Bars indicate standard errors. […] Histones prepared from non-irradiated or irradiated (9 Gy) 293T cells were resolved by SDS-PAGE and stained with Coomassie Brilliant Blue (C.B.; top panel) or immunoblotted with antibodies that recognize the C-terminus (C-ter) of histone H3, histone H3 dimethylated on Lys79 (K79dm), histone H2AX and phosphorylated histone H2AX (γ-H2AX; middle panel). […] Bound histone H3 was detected by immunoblotting (IB; lower panel). c, Exposure of cells to hypotonic media slows the nuclear diffusion of 53BP1. […] To show differences in GFP-53BP1 fluorescence before and after bleaching, the post-bleach image was pseudocolored magenta and merged with the pre-bleach image (Diff. image). […]
3 days after the last siRNA transfection, the cells were exposed to 9 Gy IR and 53BP1 intracellular localization was monitored by immunofluorescence 15 min later^5.

Chain of 53BP1 tandem tudor domain (Q12888 1484-1603 limits assumed): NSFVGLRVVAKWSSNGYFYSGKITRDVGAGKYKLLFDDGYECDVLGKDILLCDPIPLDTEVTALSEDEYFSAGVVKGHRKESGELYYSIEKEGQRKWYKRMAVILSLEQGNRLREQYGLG

Row | Molecule | competition for binding of histone H3 to 53BP1 [2] | other results
1 | CC[C@H](C)[C@H](N)C(=O)N[C@@H](C)C(=O)N[C@@H](CCC(N)=O)C(=O)N[C@@H](CC(=O)O)C(=O)N[C@@H](Cc1ccccc1)C(=O)N[C@@H](CCCCN(C)C)C(=O)N[C@H](C(=O)N[C@@H](CC(=O)O)C(=O)N[C@@H](CC(C)C)C(=O)N[C@@H](CCCNC(=N)N)C(=O)O)[C@@H](C)O (H-IAQDF[Lys(Me2)]TDLR-OH; N-terminus and C-terminus assumed) | competed for binding of histone H3 to 53BP1 | Kd [1]: < 1 µM
2 | GCUCGCUAUGGAGAAUUACdTdT (guide GCUCGCUAUGGAGAAUUACTT; siRNA; sugars from the 5' end r19 d2, backbone not given here) [siRNA specific for human Dot1L, siRNA directed against human dot1L] | – | methylation of histone H3 on Lys79 (human Dot1L): suppressed; recruitment of 53BP1 to sites of DNA DSBs (U2OS cells): suppressed
3 | corresponding non-methylated peptide: peptide spanning residues 74-83 of histone H3 with non-methylated Lys79 (IAQDFKTDLR) | did not compete | –
4 | monomethylated Lys79 peptide: peptide spanning residues 74-83 of histone H3 with mono-methylated Lys79 (IAQDFK(Me)TDLR) | competed with lower efficiency | –
5 | peptide with dimethylated Arg26: peptide spanning residues 23-32 of histone H3 with dimethylated Arg26 (KAARKSAPAT; dimethylated Arg26; UniProt P68431 24-33, looked up, fragment) | competed with lower efficiency | –
6 | peptide with dimethylated Lys27: peptide spanning residues 23-34 of histone H3 with dimethylated Lys27 (KAARKSAPATGG; Lys27 dimethylated; UniProt P68431 24-35, looked up, fragment) | competed with lower efficiency | –
